We go through ten molecules from ChEMBL document CHEMBL1151687, “Search for alpha-helical propensity in the receptor-bound conformation of glucagon-like peptide-1” (Bioorg Med Chem, 2008).

Experiment [1] deals with T1, Glucagon-like peptide 1 receptor (Homo sapiens, UniProt P43220). The experiment can be described thus: Activation of human GLP1R expressed in HEK293 cells assessed as effect on cAMP responsive element promoter driven luciferase expression. It is filed as functional, cell-based.
In experiment [2] the target is T1, Glucagon-like peptide 1 receptor. The experiment in a line: Displacement of [125I]exendin(9-39) from human GLP1R expressed in HEK293 cells. It is filed as cell-based. In general terms: In a radioligand displacement assay an active substance lowers the binding of a labelled ligand.

SMILES strings stand for the structures. Positions of bridges follow the written chain, without caps; N, C: chain ends. Residues, ends and D or L forms follow the SMILES beside them.

T1 sequence (P43220 whole entry): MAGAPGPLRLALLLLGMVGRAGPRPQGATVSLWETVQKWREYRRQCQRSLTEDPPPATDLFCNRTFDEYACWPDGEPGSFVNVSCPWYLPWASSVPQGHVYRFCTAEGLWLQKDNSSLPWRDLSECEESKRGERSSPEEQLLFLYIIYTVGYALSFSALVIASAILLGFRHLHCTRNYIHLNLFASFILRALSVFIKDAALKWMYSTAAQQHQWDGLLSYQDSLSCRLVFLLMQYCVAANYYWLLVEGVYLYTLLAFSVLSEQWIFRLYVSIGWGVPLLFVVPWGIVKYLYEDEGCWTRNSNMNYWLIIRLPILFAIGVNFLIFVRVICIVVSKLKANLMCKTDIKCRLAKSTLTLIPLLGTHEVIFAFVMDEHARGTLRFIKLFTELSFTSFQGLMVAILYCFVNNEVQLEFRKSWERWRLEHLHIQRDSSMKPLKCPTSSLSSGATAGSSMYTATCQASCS

Take `CC[C@H](C)[C@H](NC(=O)[C@H](CCC(=O)O)NC(=O)[C@H](CCCCN)NC(=O)[C@H](C)NC(=O)[C@H](C)NC(=O)[C@H](CCC(N)=O)NC(=O)CNC(=O)[C@H](CCC(=O)O)NC(=O)[C@H](CC(C)C)NC(=O)[C@H](Cc1ccc(O)cc1)NC(=O)[C@H](CCC(N)=O)NC(=O)[C@H](CO)NC(=O)[C@@H](NC(=O)[C@H](CC(=O)O)NC(=O)[C@H](CCCCNC(C)=O)NC(=O)[C@@H](NC(=O)[C@H](Cc1ccccc1)NC(=O)[C@@H](NC(=O)CNC(=O)[C@H](CCC(=O)O)NC(=O)[C@H](C)NC(=O)[C@@H](N)Cc1cnc[nH]1)[C@@H](C)O)[C@@H](C)O)C(C)C)C(=O)N[C@@H](Cc1ccccc1)C(=O)N[C@@H](C)C(=O)N[C@@H](Cc1c[nH]c2ccccc12)C(=O)N[C@@H](CC(C)C)C(=O)N[C@H](C(=O)N[C@@H](CCCCN)C(=O)NCC(=O)N[C@@H](CCCN=C(N)N)C(N)=O)C(C)C` (H-HAEGTFTK(Ac)DVSQYLEGQAAKEIFAWLVKGR-NH2): the EC50 (in general, the concentration needed to bring the measured effect to its halfway point) in experiment [1] was 16 nM. Besides, in experiment [2], the half-maximal inhibitory concentration (IC50) (commonly the concentration that inhibits the measured activity by half) was 230 nM.
For `CC[C@H](C)[C@H](NC(=O)[C@H](Cc1ccccc1)NC(=O)[C@H](CCC(=O)O)NC(=O)[C@H](CCCCN)NC(=O)[C@H](C)NC(=O)[C@H](C)NC(=O)[C@H](CCC(N)=O)NC(=O)CNC(=O)[C@H](CCC(=O)O)NC(=O)[C@H](CC(C)C)NC(=O)[C@H](Cc1ccc(O)cc1)NC(=O)[C@@H]1CCC(=O)NCCCC[C@H](NC(=O)[C@@H](NC(=O)[C@H](Cc2ccccc2)NC(=O)[C@@H](NC(=O)CNC(=O)[C@H](CCC(=O)O)NC(=O)[C@H](C)NC(=O)[C@@H](N)Cc2cnc[nH]2)[C@@H](C)O)[C@@H](C)O)C(=O)N[C@@H](CC(=O)O)C(=O)N[C@@H](C(C)C)C(=O)N[C@@H](CO)C(=O)N1)C(=O)N[C@@H](C)C(=O)N[C@@H](Cc1c[nH]c2ccccc12)C(=O)N[C@@H](CC(C)C)C(=O)N[C@H](C(=O)N[C@@H](CCCCN)C(=O)NCC(=O)N[C@@H](CCCNC(=N)N)C(N)=O)C(C)C` (H-HAEGTFTKDVSEYLEGQAAKEFIAWLVKGR-NH2; lactam 8-12), in experiment [1] (hek293), the half-maximal effective concentration (EC50) was found to be 8.4 nM. In experiment [2] (hek293), this molecule yielded an IC50 of 210 nM.
For `CC[C@H](C)[C@H](NC(=O)[C@H](Cc1ccccc1)NC(=O)[C@H](CCC(=O)O)NC(=O)[C@H](CCCCN)NC(=O)[C@H](C)NC(=O)[C@H](C)NC(=O)[C@H](CCC(N)=O)NC(=O)CNC(=O)[C@H](CCC(=O)O)NC(=O)[C@@H]1CCC(=O)NCCCC[C@H](NC(=O)[C@H](CC(=O)O)NC(=O)[C@H](CO)NC(=O)[C@@H](NC(=O)[C@H](Cc2ccccc2)NC(=O)[C@@H](NC(=O)CNC(=O)[C@H](CCC(=O)O)NC(=O)[C@H](C)NC(=O)[C@@H](N)Cc2cnc[nH]2)[C@@H](C)O)[C@@H](C)O)C(=O)N[C@@H](CO)C(=O)N[C@@H](CO)C(=O)N[C@@H](Cc2ccc(O)cc2)C(=O)N1)C(=O)N[C@@H](C)C(=O)N[C@@H](Cc1c[nH]c2ccccc12)C(=O)N[C@@H](CC(C)C)C(=O)N[C@H](C(=O)N[C@@H](CCCCN)C(=O)NCC(=O)N[C@@H](CCCNC(=N)N)C(N)=O)C(C)C` (H-HAEGTFTSDKSSYEEGQAAKEFIAWLVKGR-NH2; lactam 10-14), in experiment [1], the concentration giving a half-maximal response (EC50) is 0.0075 nM. In experiment [2], this molecule displayed an IC50 of 4.5 nM.
In the same order, the values of `CC[C@H](C)[C@H](NC(=O)[C@H](CCC(=O)O)NC(=O)[C@H](CCCCN)NC(=O)[C@H](C)NC(=O)[C@H](C)NC(=O)[C@H](CCC(N)=O)NC(=O)[C@H](CCC(N)=O)NC(=O)[C@H](CCC(=O)O)NC(=O)[C@H](CC(C)C)NC(=O)[C@H](Cc1ccc(O)cc1)NC(=O)[C@H](CCCCNC(C)=O)NC(=O)[C@H](CO)NC(=O)[C@@H](NC(=O)[C@H](CC(=O)O)NC(=O)[C@H](CO)NC(=O)[C@@H](NC(=O)[C@H](Cc1ccccc1)NC(=O)[C@@H](NC(=O)CNC(=O)[C@H](CCC(=O)O)NC(=O)[C@H](C)NC(=O)[C@@H](N)Cc1cnc[nH]1)[C@@H](C)O)[C@@H](C)O)C(C)C)C(=O)N[C@@H](Cc1ccccc1)C(=O)N[C@@H](C)C(=O)N[C@@H](Cc1c[nH]c2ccccc12)C(=O)N[C@@H](CC(C)C)C(=O)N[C@H](C(=O)N[C@@H](CCCCN)C(=O)NCC(=O)N[C@@H](CCCNC(=N)N)C(N)=O)C(C)C` (H-HAEGTFTSDVSK(Ac)YLEQQAAKEIFAWLVKGR-NH2) are 0.0038 nM and 17 nM.
In the same order, the values of `CC[C@H](C)[C@H](NC(=O)[C@H](Cc1ccccc1)NC(=O)[C@H](CCC(=O)O)NC(=O)[C@H](CCCCN)NC(=O)[C@H](C)NC(=O)[C@H](C)NC(=O)[C@H](CCC(N)=O)NC(=O)[C@@H]1CCC(=O)NCCCC[C@H](NC(=O)[C@H](CO)NC(=O)[C@@H](NC(=O)[C@H](CC(=O)O)NC(=O)[C@H](CO)NC(=O)[C@@H](NC(=O)[C@H](Cc2ccccc2)NC(=O)[C@@H](NC(=O)CNC(=O)[C@H](CCC(=O)O)NC(=O)[C@H](C)NC(=O)[C@@H](N)Cc2cnc[nH]2)[C@@H](C)O)[C@@H](C)O)C(C)C)C(=O)N[C@@H](Cc2ccc(O)cc2)C(=O)N[C@@H](CC(C)C)C(=O)N[C@@H](CCC(=O)O)C(=O)N1)C(=O)N[C@@H](C)C(=O)N[C@@H](Cc1c[nH]c2ccccc12)C(=O)N[C@@H](CC(C)C)C(=O)N[C@H](C(=O)N[C@@H](CCCCN)C(=O)NCC(=O)N[C@@H](CCCN=C(N)N)C(N)=O)C(C)C` (H-HAEGTFTSDVSKYLEEQAAKEFIAWLVKGR-NH2; lactam 12-16) are 0.002 nM and 15.1 nM.
For the molecule `CC[C@H](C)[C@H](NC(=O)[C@H](CCC(=O)O)NC(=O)[C@H](CCCCN)NC(=O)[C@H](C)NC(=O)[C@H](CCC(N)=O)NC(=O)[C@H](CCC(N)=O)NC(=O)CNC(=O)[C@H](CCC(=O)O)NC(=O)[C@H](CCCCNC(C)=O)NC(=O)[C@H](Cc1ccc(O)cc1)NC(=O)[C@H](CO)NC(=O)[C@H](CO)NC(=O)[C@@H](NC(=O)[C@H](CC(=O)O)NC(=O)[C@H](CO)NC(=O)[C@@H](NC(=O)[C@H](Cc1ccccc1)NC(=O)[C@@H](NC(=O)CNC(=O)[C@H](CCC(=O)O)NC(=O)[C@H](C)NC(=O)[C@@H](N)Cc1cnc[nH]1)[C@@H](C)O)[C@@H](C)O)C(C)C)C(=O)N[C@@H](Cc1ccccc1)C(=O)N[C@@H](C)C(=O)N[C@@H](Cc1c[nH]c2ccccc12)C(=O)N[C@@H](CC(C)C)C(=O)N[C@H](C(=O)N[C@@H](CCCCN)C(=O)NCC(=O)N[C@@H](CCCNC(=N)N)C(N)=O)C(C)C` (H-HAEGTFTSDVSSYK(Ac)EGQQAKEIFAWLVKGR-NH2), in experiment [1], the concentration giving a half-maximal response (EC50) stood at 0.1 nM. This molecule displayed an IC50 in experiment [2] of 1200 nM.
Regarding `CC[C@H](C)[C@H](NC(=O)[C@H](Cc1ccccc1)NC(=O)[C@H](CCC(=O)O)NC(=O)[C@H](CCCCN)NC(=O)[C@H](C)NC(=O)[C@@H]1CCC(=O)NCCCC[C@H](NC(=O)[C@H](Cc2ccc(O)cc2)NC(=O)[C@H](CO)NC(=O)[C@H](CO)NC(=O)[C@@H](NC(=O)[C@H](CC(=O)O)NC(=O)[C@H](CO)NC(=O)[C@@H](NC(=O)[C@H](Cc2ccccc2)NC(=O)[C@@H](NC(=O)CNC(=O)[C@H](CCC(=O)O)NC(=O)[C@H](C)NC(=O)[C@@H](N)Cc2cnc[nH]2)[C@@H](C)O)[C@@H](C)O)C(C)C)C(=O)N[C@@H](CCC(=O)O)C(=O)NCC(=O)N[C@@H](CCC(N)=O)C(=O)N1)C(=O)N[C@@H](C)C(=O)N[C@@H](Cc1c[nH]c2ccccc12)C(=O)N[C@@H](CC(C)C)C(=O)N[C@H](C(=O)N[C@@H](CCCCN)C(=O)NCC(=O)N[C@@H](CCCNC(=N)N)C(N)=O)C(C)C` (H-HAEGTFTSDVSSYKEGQEAKEFIAWLVKGR-NH2; lactam 14-18), in experiment [1] (hek293), the EC50 was determined as 0.36 nM. In experiment [2] (hek293), this molecule had a 50% inhibitory concentration (IC50) of 3000 nM.
Take `CC[C@H](C)[C@H](NC(=O)[C@H](CCC(=O)O)NC(=O)[C@H](CCCCN)NC(=O)[C@H](C)NC(=O)[C@H](C)NC(=O)[C@H](CCC(N)=O)NC(=O)CNC(=O)[C@H](CCC(=O)O)NC(=O)[C@H](CC(C)C)NC(=O)[C@H](Cc1ccc(O)cc1)NC(=O)[C@H](CO)NC(=O)[C@H](CO)NC(=O)[C@@H](NC(=O)[C@H](CC(=O)O)NC(=O)[C@H](CO)NC(=O)[C@@H](NC(=O)[C@H](Cc1ccccc1)NC(=O)[C@@H](NC(=O)CNC(=O)[C@H](CCC(=O)O)NC(=O)[C@H](C)NC(=O)[C@@H](N)Cc1cnc[nH]1)[C@@H](C)O)[C@@H](C)O)C(C)C)C(=O)N[C@@H](Cc1ccccc1)C(=O)N[C@@H](C)C(=O)N[C@@H](Cc1c[nH]c2ccccc12)C(=O)N[C@@H](CC(C)C)C(=O)N[C@H](C(=O)N[C@@H](CCCCN)C(=O)NCC(=O)N[C@@H](CCCN=C(N)N)C(=O)O)C(C)C` (H-HAEGTFTSDVSSYLEGQAAKEIFAWLVKGR-OH): the EC50 in experiment [1] (hek293) is 0.0036 nM. In experiment [2] (hek293), this molecule displayed an IC50 of 2.6 nM.
On to `CC[C@H](C)[C@H](NC(=O)[C@H](CCC(=O)O)NC(=O)[C@H](CCCCN)NC(=O)[C@H](CCC(N)=O)NC(=O)[C@H](C)NC(=O)[C@H](CCC(N)=O)NC(=O)CNC(=O)[C@H](CCCCNC(C)=O)NC(=O)[C@H](CC(C)C)NC(=O)[C@H](Cc1ccc(O)cc1)NC(=O)[C@H](CO)NC(=O)[C@H](CO)NC(=O)[C@@H](NC(=O)[C@H](CC(=O)O)NC(=O)[C@H](CO)NC(=O)[C@@H](NC(=O)[C@H](Cc1ccccc1)NC(=O)[C@@H](NC(=O)CNC(=O)[C@H](CCC(=O)O)NC(=O)[C@H](C)NC(=O)[C@@H](N)Cc1cnc[nH]1)[C@@H](C)O)[C@@H](C)O)C(C)C)C(=O)N[C@@H](Cc1ccccc1)C(=O)N[C@@H](C)C(=O)N[C@@H](Cc1c[nH]c2ccccc12)C(=O)N[C@@H](CC(C)C)C(=O)N[C@H](C(=O)N[C@@H](CCCCN)C(=O)NCC(=O)N[C@@H](CCCNC(=N)N)C(N)=O)C(C)C` (H-HAEGTFTSDVSSYLK(Ac)GQAQKEIFAWLVKGR-NH2), for which the EC50 in experiment [1] came to 0.12 nM. Further, the IC50 in experiment [2] was determined as 1600 nM.
Regarding `CC[C@H](C)[C@H](NC(=O)[C@H](Cc1ccccc1)NC(=O)[C@H](CCC(=O)O)NC(=O)[C@H](CCCCN)NC(=O)[C@@H]1CCC(=O)NCCCC[C@H](NC(=O)[C@H](CC(C)C)NC(=O)[C@H](Cc2ccc(O)cc2)NC(=O)[C@H](CO)NC(=O)[C@H](CO)NC(=O)[C@@H](NC(=O)[C@H](CC(=O)O)NC(=O)[C@H](CO)NC(=O)[C@@H](NC(=O)[C@H](Cc2ccccc2)NC(=O)[C@@H](NC(=O)CNC(=O)[C@H](CCC(=O)O)NC(=O)[C@H](C)NC(=O)[C@@H](N)Cc2cnc[nH]2)[C@@H](C)O)[C@@H](C)O)C(C)C)C(=O)NCC(=O)N[C@@H](CCC(N)=O)C(=O)N[C@@H](C)C(=O)N1)C(=O)N[C@@H](C)C(=O)N[C@@H](Cc1c[nH]c2ccccc12)C(=O)N[C@@H](CC(C)C)C(=O)N[C@H](C(=O)N[C@@H](CCCCN)C(=O)NCC(=O)N[C@@H](CCCNC(=N)N)C(N)=O)C(C)C` (H-HAEGTFTSDVSSYLKGQAEKEFIAWLVKGR-NH2; lactam 15-19), the EC50 in experiment [1] (hek293) was 1.1 nM. This molecule also showed an IC50 in experiment [2] (hek293) of 9200 nM.
